The source of these data is patent publication US8501162B2, “Compositions and methods for the skin and hair” (The Boots Company PLC, priority 2007, dated 2013).

The nature of the assay: ABEL antioxidant assay with peroxynitrite, raw materials and combinations of three raw materials in solvent. The settings on record: for ABEL-RAC contribution in combination: ABEL-RAC of pure ingredient x percentage of ingredient in combination. Type of assay: biochemical. From the text: The ABEL antioxidant assay is an in vitro assay for testing the antioxidant capacity of a material. It utilises a photoprotein, which emits light when challenged with various free radical species, eg peroxynitrite, hydroxyl radicals or halogenated oxidants.
If a material is challenged with one or more of these free radical species, then any antioxidant in the sample will compete with the photoprotein. The result of this competition is a reduction in the amount of light emitted and sometimes, in addition, a delay in the time at which the maximum light emitted occurs. A light response curve can be produced for each sample tested, and EC50 and ABEL-RAC values calculated. The EC50 (effective concentration) is the concentration (normalised to g/L or mg/mL) of a material that reduces the light emitted by 50%. This reduction in light is a measure of the antioxidant capacity of the test material. The reciprocal of the EC50 values multiplied by 100 is referred to as the ABEL-RAC score.
The ABEL® antioxidant assay with peroxynitrite is the assay of choice to assess total antioxidant capacity because peroxynitrite attacks almost all compounds, including hydrophobic and hydrophilic antioxidants. Pro-oxidants are also identified with the peroxynitrite assay. Other ABEL® antioxidant assays use superoxide (produced as a single bolus in high concentration as well as enzymatically), hydroxyl radical and hyperchlorous acid (the halogenated oxidant assay). Pro-oxidants are not observed with the hydroxyl radical and halogenated oxidant assays. The hydroxyl radical assay is recommended when samples are water-soluble and the halogenated assay when the samples are soluble in organic solvent. This is because solvents such as ethanol, methanol, acetone and DMSO are good quenchers of hydroxyl radicals, and therefore the organic solvents contribute to the antioxidant effect shown by the sample. Organic solvents have little effect, however, on the halogenated oxidant assay.
• 1. The antioxidant agents (referred to as raw materials (RM) hereafter) were first dissolved in an appropriate solvent as detailed in Table 1. • 2. Combinations of three raw materials were prepared for testing by combining one part each of three raw material dilutions, at the concentrations specified in Table 2. • 3. In Table 2 each combination is given a combination number and each combination number is further described as A, B or C, where the concentrations of the raw material dilutions used in B are ten times greater that A, and the concentrations used in C are ten times greater than B (one hundred times greater than A). • 4. The concentrations of raw materials provided in Table 2 are the final concentrations of those materials in the ABEL® antioxidant assay.
Raw material combinations 1, 3, 4, 8 and 9 were assayed at three additional concentrations which are dilutions of concentration A (see Table 2). The details are contained in Table 3.

The structures appear in SMILES notation.

For `COc1cc2c(cc1O)CCC(C)(C)O2` [RM10, dimethylmethoxy chromanol], the “ABEL-RAC contribution in combination” value runs as follows: (Combination 1) 35221; (Combination 3) 10031; (Combination 4) 9606; (Combination 8) 4832. Moreover, where the note is “diluted with IMS versus diluted with ethanol, FIG. 19”, the “Effect of solvent (ethanol rather than IMS) on ABEL peroxynitrite assay result” value was “does not make an appreciable difference”. The “EC50 mg/mL of pure ingredient” value (pure raw material, ABEL peroxynitrite assay) is reported as 0.0018 mg/mL. Also, the “ABEL-RAC peroxynitrite of pure ingredient” value (pure raw material, ABEL-RAC = reciprocal of EC50 x 100) was 88053.
